Experimental data as given in patent US9506926B2, “Molecular predictors of therapeutic response to specific anti-cancer agents” (The Regents of the University of California, priority 2011, dated 2016).
“Also recorded” adds a separate entry of the source.

Test system: breast cancer cell lines
Test: Cell growth inhibition assay (Cell Titer Glo, 72 h drug exposure, GI50) across a breast cancer cell line panel, with subtype, copy number and growth rate association analysis
Assay type: cell-based, human
Conditions: for Subtype specificity: Table 1, most sensitive cell line subtype, q<0.10 deemed significant; for Subtype-preferential activity in breast cancer cell lines (in words): running text and figure legends, response as −log10(GI50); for Association of 17q12 (ERBB2) amplification with compound response / Association of 20q13 (STK15/AURKA) amplification with compound response: high amplification vs. low or no amplification, t-test; for Response of the cell line panel as a whole: compounds excluded from further analysis; for Molecular Subtype in which the compound shows Preferential Activity: Table 7 summary; for Association of response with growth rate (doubling time): 2-way ANCOVA of cell line class and growth rate

Structure (SMILES) | Subtype specificity | Subtype-preferential activity in breast cancer cell lines (in words) | further results
CS(=O)(=O)CCNCc1ccc(-c2ccc3ncnc(Nc4ccc(OCc5cccc(F)c5)c(Cl)c4)c3c2)o1 [Lapatinib] | Luminal/ERBB2AMP |  | 
N.N.[Cl][Pt][Cl] [Cisplatin] | Basal/Claudin-low | basal cell line sensitivity; also recorded: preferential activity in basal or claudin-low cell lines | 
COc1cc([C@@H]2c3cc4c(cc3[C@@H](O[C@@H]3O[C@@H]5CO[C@@H](C)O[C@H]5[C@H](O)[C@H]3O)[C@H]3COC(=O)[C@H]23)OCO4)cc(OC)c1O [Etoposide] | Claudin-low | preferential activity in basal or claudin-low cell lines | 
CC(=O)O[C@@]12CO[C@@H]1C[C@H](O)[C@@]1(C)C(=O)[C@H](O)C3=C(C)[C@@H](OC(=O)[C@H](O)[C@@H](NC(=O)OC(C)(C)C)c4ccccc4)C[C@@](O)([C@@H](OC(=O)c4ccccc4)[C@H]21)C3(C)C [Docetaxel] | Basal/Claudin-low | preferential activity in basal or claudin-low cell lines | 
COc1cc2ncnc(Nc3cccc(Cl)c3)c2cc1OC [AG1478] | ERBB2AMP |  | 
CN(C)C/C=C/C(=O)Nc1cc2c(Nc3ccc(F)c(Cl)c3)ncnc2cc1O[C@H]1CCOC1 [BIBW 2992] | ERBB2AMP |  | Association of 17q12 (ERBB2) amplification with compound response: associated with sensitivity
O=c1cc(-c2ccccc2)oc2cc(O)c(O)c(O)c12 [baicalein] |  |  | Response of the cell line panel as a whole: almost none of the cell lines in the panel responded strongly
Cc1[nH]c2ccccc2c1CCNCc1ccc(/C=C/C(=O)NO)cc1 [LBH589] | Luminal |  | 
C=CCNC1=C2C[C@@H](C)C[C@H](OC)[C@H](O)[C@@H](C)/C=C(\C)[C@H](OC(N)=O)[C@@H](OC)/C=C\C=C(/C)C(=O)NC(=CC1=O)C2=O [17-AAG] | ERBB2AMP |  | Association of 17q12 (ERBB2) amplification with compound response: associated with sensitivity
C#Cc1cccc(Nc2ncnc3cc(OCCOC)c(OCCOC)cc23)c1 [Erlotinib] | Basal | preferentially active in basal class cell lines | Molecular Subtype in which the compound shows Preferential Activity: Basal (ER−/PR−/HER2−Claudin+)
CC(/C=C/C(=O)NO)=C\[C@@H](C)C(=O)c1ccc(N(C)C)cc1 [Trichostatin A] | Luminal | preferentially active in luminal class cell lines | Molecular Subtype in which the compound shows Preferential Activity: Luminal (ER+/PR+)
NS(=O)(=O)c1ccc(Nc2nc(OCC3CCCCC3)c3[nH]cnc3n2)cc1 [NU6102] |  |  | Association of 17q12 (ERBB2) amplification with compound response: associated with resistance
CO[C@H]1C[C@@H]2CC[C@@H](C)[C@@](O)(O2)C(=O)C(=O)N2CCCC[C@H]2C(=O)O[C@H]([C@H](C)C[C@@H]2CC[C@@H](OC(=O)C(C)(CO)CO)[C@H](OC)C2)CC(=O)[C@H](C)/C=C(\C)[C@@H](O)[C@@H](OC)C(=O)[C@H](C)C[C@H](C)/C=C/C=C/C=C/1C [Temsirolimus] | Luminal |  | 
O=C(CCCCCCC(=O)Nc1ccccc1)NO [Vorinostat] | Luminal | preferentially active in luminal class cell lines | Molecular Subtype in which the compound shows Preferential Activity: Luminal (ER+/PR+)
CCn1cc(-c2ccnc3[nH]c(-c4cccc(CN(C)C)c4)cc23)c(-c2ccc(NC(=O)N(C)C)cc2)n1 [GSK1070916] | Claudin-low | more active against basal and/or claudin-low cell lines | Molecular Subtype in which the compound shows Preferential Activity: Claudin-low; also recorded: Tumors with low or no 20q13 amplification; Association of 20q13 (STK15/AURKA) amplification with compound response: is associated with; also recorded: associated with resistance; Association of 20q13 (STK15/AURKA) amplification with compound response (listed as GSK.AUR1): less effective in tumors that have genomic DNA copy number amplifications at 20q13; Subtype-preferential activity in breast cancer cell lines (in words) (listed as GSK.AUR1): preferentially active against Claudin-low cell lines
COc1ncc(-c2ccc3nccc(-c4ccnnc4)c3c2)cc1NS(=O)(=O)c1ccc(F)cc1F [GSK2126458] | Luminal/ERBB2AMP |  | 
O=C(Nc1cc(Cl)cc2c1[nH]c1cnccc12)c1cccnc1 [PS1145] |  |  | Response of the cell line panel as a whole: almost none of the cell lines in the panel responded strongly
O=C1c2ccccc2-[n+]2ccc3c([nH]c4ccccc43)c21 [Fascaplysin] | Luminal |  | 
O=c1[nH]c2ccccc2n1C1CCN(Cc2ccc(-c3nc4cc5[nH]cnc5cc4nc3-c3ccccc3)cc2)CC1 [Sigma AKT1-2 inhibitor] | Luminal | Luminal and ERBB2AMP cell lines preferentially respond | 
CCNCCCNC/C=C\CNCCCNCC [CGC-11047] | Basal |  | 
COc1cc2ncnc(Nc3ccc(F)c(Cl)c3)c2cc1OCCCN1CCOCC1 [Gefitinib] | ERBB2AMP |  | Association of 17q12 (ERBB2) amplification with compound response: associated with sensitivity
Cc1cc(Nc2cc(N3CCN(C)CC3)nc(Sc3ccc(NC(=O)C4CC4)cc3)n2)n[nH]1 [VX-680] | not ERBB2AMP |  | 
CCN(CC)CCCCNc1ncc2cc(-c3cc(OC)cc(OC)c3)c(NC(=O)NC(C)(C)C)nc2n1 [PD173074] | Claudin-low |  | 
O=c1[nH]cc(F)c(=O)[nH]1 [5-FU, Fluorouracil] |  |  | Association of response with growth rate (doubling time): strong effects of both subtype and growth rate on response; Association of response with growth rate (doubling time) (listed as 5-florouracil): strong significance in the ANCOVA model for both class and doubling time; also recorded: decreases as doubling time increases; Association of response with growth rate (doubling time) (listed as Fluorouracil): active against cell lines with rapid growth rates; also recorded: active against cell lines that grow more quickly; Shift of mean sensitivity between luminal and basal subtypes (ANCOVA model, FIG. 4B): shifts by approximately one log; Molecular Subtype in which the compound shows Preferential Activity: KI67+ tumors; Subtype-preferential activity in breast cancer cell lines (in words) (listed as 5-florouracil): not significant in the subtype test alone; Subtype-preferential activity in breast cancer cell lines (in words) (listed as Fluoruracil): more effective against basal cell lines (both triple negative and claudin-low) than against luminal cell lines
